Patent US9278874B2, “Prevention of starch degradation in pulp, paper or board making processes using zinc ions and an oxidizing biocide” (KEMIRA OYJ, priority 2011, dated 2016)

Columns and labels:
Type in all cases: cell-based
[1] = tested on: starch degrading bacteria; assay: Prevention of starch degradation in head box stock using chlorine dioxide (ClO2) and zinc; remaining starch by iodine staining; details: for Prevention of starch degradation (in words): 10 mg/l zinc or 5-20 mg/l ClO2 alone; for Starch concentration 4 h: contact time 4 h; for Starch concentration 24 h: contact time 24 h
Protocol: (§1) Prevention of starch degradation was studied using an oxidizing biocide (chlorine dioxide, ClO2) and zinc. Head box stock from packaging board mill, stored at +4° C. after collecting, was amended with 0.8 g/l cooked starch and incubated overnight at 45° C. with 150 rpm shaking to induce the growth of starch degrading bacteria. The stock was divided into 30 ml portions and appropriate amounts of zinc (Zn^2+ from zinc chloride) and ClO2 were added together with a new starch addition (400 mg/l). After 4 h and 24 h incubation (+45° C., 150 rpm) the remaining starch was quantified using iodine staining (Lugol-solution) at 590 nm. An external standard curve was used to convert absorbance values into starch amounts.

[2] = tested on: starch degrading bacteria; assay: Prevention of starch degradation in head box stock using glutaraldehyde and zinc; remaining starch by iodine staining; details: for Prevention of starch degradation (in words): 10 mg/l zinc or 5-30 mg/l glutaraldehyde alone; for Starch concentration 4 h: contact time 4 h; for Starch concentration 24 h: contact time 24 h
Protocol: as §1, with “a non-oxidizing” for “an oxidizing”, “(glutaraldehyde)” for “(chlorine dioxide, ClO2)”, “glutaraldehyde” for “ClO2”

[3] = tested on: starch degrading bacteria; assay: Prevention of starch degradation in head box stock using monochloramine (MCA) and zinc; remaining starch by iodine staining; details: for Prevention of starch degradation (in words): 10 mg/l zinc or MCA alone; for Starch concentration 4 h: contact time 4 h; for Starch concentration 24 h: contact time 24 h
Protocol: as §1, with “(monochloramine, MCA)” for “(chlorine dioxide, ClO2)”, “MCA” for “ClO2”

[4] = tested on: starch degrading bacteria; assay: Prevention of starch degradation in head box stock using performic acid (PFA) and zinc; remaining starch by iodine staining; details: for Prevention of starch degradation (in words): 10 mg/l zinc or 20-120 mg/l PFA alone; for Starch concentration 4 h: contact time 4 h; for Starch concentration 24 h: contact time 24 h
Protocol: as §1, with “(performic acid, PFA)” for “(chlorine dioxide, ClO2)”, “PFA” for “ClO2”

[5] = PFA 11 mg/l (active ingredient)
[6] = PFA 16 mg/l (active ingredient)
[7] = Zn 10 mg/l (mg Zn2+ per l), 400 mg/l starch added

Which “Prevention of starch degradation (in words)” value (from here on “Prevention”) ([1]; 4 h) does the source give for `[O][Cl+][O-]` [ClO2, chlorine dioxide] here?
Its value is “prevented most of the starch degradation”.

What about the “Prevention” value ([1]; 24 h) of the same compound?
Its value is “did not have marked effect”.

And the “Starch concentration 4 h” value ([1]; ClO2 5 mg/l)?
The value was 128 mg/L.

What about the “Starch concentration 24 h” value ([1]; ClO2 5 mg/l) of the same compound?
Its value is 5 mg/L.

What about the “Starch concentration 4 h” value ([1]; ClO2 9 mg/l) of the same compound?
Its value is 153 mg/L.

What about the “Starch concentration 24 h” value ([1]; ClO2 9 mg/l) of the same compound?
The value was 12 mg/L.

What about the “Starch concentration 4 h” value ([1]; ClO2 14 mg/l) of the same compound?
Its value is 197 mg/L.

And the “Starch concentration 24 h” value ([1]; ClO2 14 mg/l)?
Its value is 13 mg/L.

What about the “Starch concentration 4 h” value ([1]; ClO2 20 mg/l) of the same compound?
Its value is 227 mg/L.

And the “Starch concentration 24 h” value ([1]; ClO2 20 mg/l)?
The value was 19 mg/L.

How did the “Prevention” value ([2]; 4 h) turn out when `O=CCCCC=O` [GL, glutaraldehyde] was run?
The value was “prevented some of the starch degradation”.

What about the “Prevention” value ([2]; 24 h) of the same compound?
The value was “did not have marked effect”.

What about the “Starch concentration 4 h” value ([2]; GL 5 mg/l (active substance)) of the same compound?
The value was 85 mg/L.

What about the “Starch concentration 24 h” value ([2]; GL 5 mg/l (active substance)) of the same compound?
The value was 3 mg/L.

And the “Starch concentration 4 h” value ([2]; GL 10 mg/l (active substance))?
Its value is 103 mg/L.

And the “Starch concentration 24 h” value ([2]; GL 10 mg/l (active substance))?
Its value is 5 mg/L.

What about the “Starch concentration 4 h” value ([2]; GL 20 mg/l (active substance)) of the same compound?
Its value is 96 mg/L.

And the “Starch concentration 24 h” value ([2]; GL 20 mg/l (active substance))?
The value was 4 mg/L.

What about the “Starch concentration 4 h” value ([2]; GL 30 mg/l (active substance)) of the same compound?
The value was 93 mg/L.

What about the “Starch concentration 24 h” value ([2]; GL 30 mg/l (active substance)) of the same compound?
Its value is 6 mg/L.

Which results are given for `NCl` [MCA, monochloramine]?
Prevention of starch degradation (in words) ([3]; 4 h): prevented most of the starch degradation; Prevention of starch degradation (in words) ([3]; 24 h): did not have any effect; Starch concentration 4 h ([3]; MCA 10 mg/l (active chlorine)): 158 mg/L; Starch concentration 24 h ([3]; MCA 10 mg/l (active chlorine)): 5 mg/L; Starch concentration 4 h ([3]; MCA 20 mg/l (active chlorine)): 189 mg/L; Starch concentration 24 h ([3]; MCA 20 mg/l (active chlorine)): 41 mg/L

With `O=COO` [PFA, performic acid] as the compound, how does the “Prevention” value ([4]; 4 h) read?
Its value is “prevented most of the starch degradation”.

What about the “Prevention” value ([4]; 24 h) of the same compound?
Its value is “did not have marked effect”.

And the “Starch concentration 4 h” value ([4]; PFA 3 mg/l (active ingredient))?
The value was 114 mg/L.

And the “Starch concentration 24 h” value ([4]; PFA 3 mg/l (active ingredient))?
Its value is 3 mg/L.

What about the “Starch concentration 4 h” value ([4]; PFA 5 mg/l (active ingredient)) of the same compound?
The value was 157 mg/L.

And the “Starch concentration 24 h” value ([4]; PFA 5 mg/l (active ingredient))?
Its value is 3 mg/L.

What about the “Starch concentration 4 h” value [4, 5] of the same compound?
Its value is 208 mg/L.

And the “Starch concentration 24 h” value [4, 5]?
Its value is 5 mg/L.

And the “Starch concentration 4 h” value [4, 6]?
The value was 215 mg/L.

And the “Starch concentration 24 h” value [4, 6]?
The value was 11 mg/L.

`[Cl-].[Cl-].[Zn+2]` [Zn, zinc chloride] was tested. Which “Prevention” value ([2]; 4 h) did it give?
Its value is “prevented some of the starch degradation”.

And the “Prevention” value ([2]; 24 h)?
Its value is “did not have marked effect”.

And the “Starch concentration 4 h” value ([2]; Zn 10 mg/l (mg Zn2+ per l))?
The value was 193 mg/L.

And the “Starch concentration 24 h” value ([2]; Zn 10 mg/l (mg Zn2+ per l))?
Its value is 21 mg/L.

What about the “Prevention” value ([1]; 4 h) of the same compound?
Its value is “prevented most of the starch degradation”.

And the “Prevention” value ([1]; 24 h)?
Its value is “did not have marked effect”.

And the “Starch concentration 4 h” value ([1]; Zn 10 mg/l (mg Zn2+ per l))?
The value was 219 mg/L.

And the “Starch concentration 24 h” value ([1]; Zn 10 mg/l (mg Zn2+ per l))?
Its value is 28 mg/L.

And the “Prevention” value ([3]; 4 h)?
The value was “prevented most of the starch degradation”.

And the “Prevention” value ([3]; 24 h)?
Its value is “did not have any effect”.

What about the “Starch concentration 4 h” value [3, 7] of the same compound?
The value was 177 mg/L.

What about the “Starch concentration 24 h” value [3, 7] of the same compound?
Its value is 8 mg/L.

And the “Prevention” value ([4]; 4 h)?
The value was “prevented most of the starch degradation”.

And the “Prevention” value ([4]; 24 h)?
The value was “did not have marked effect”.

And the “Starch concentration 4 h” value ([4]; Zn 10 mg/l (mg Zn2+ per l))?
Its value is 181 mg/L.

What about the “Starch concentration 24 h” value ([4]; Zn 10 mg/l (mg Zn2+ per l)) of the same compound?
Its value is 38 mg/L.
